The record followed here is ChEMBL document CHEMBL4706518, “Discovery of MGS0274, an ester prodrug of a metabotropic glutamate receptor 2/3 agonist with improved oral bioavailability” (Eur J Med Chem, 2020).

The nature of series [1]: Oral bioavailability in monkey at 4.92 umol/kg measured up to 24 hrs by LC-MS/MS analysis. The series is classed as ADME, organism-based, Macaca mulatta. Conditions: rhesus monkey, in vivo, at 4.92 µmol/kg.
For series [2], the target named is Metabotropic glutamate receptor 3 (Rattus norvegicus) (UniProt P31422). The experiment in a line: Agonist activity at rat mGlu3 receptor expressed in CHO cell membranes by GTPgammaS binding assay relative to control. In kind it is functional. The note with it: Cell membrane, filed as agonist. Background: Binding of GTPγS marks nucleotide exchange on a G protein.

The target of series [3] is T1, Metabotropic glutamate receptor 8 (Homo sapiens, UniProt O00222). The experiment in a line: Agonist activity at human mGlu8 receptor expressed in CHO cell membranes by GTPgammaS binding assay. In kind it is functional, Cell membrane.
T1 sequence (O00222 whole entry): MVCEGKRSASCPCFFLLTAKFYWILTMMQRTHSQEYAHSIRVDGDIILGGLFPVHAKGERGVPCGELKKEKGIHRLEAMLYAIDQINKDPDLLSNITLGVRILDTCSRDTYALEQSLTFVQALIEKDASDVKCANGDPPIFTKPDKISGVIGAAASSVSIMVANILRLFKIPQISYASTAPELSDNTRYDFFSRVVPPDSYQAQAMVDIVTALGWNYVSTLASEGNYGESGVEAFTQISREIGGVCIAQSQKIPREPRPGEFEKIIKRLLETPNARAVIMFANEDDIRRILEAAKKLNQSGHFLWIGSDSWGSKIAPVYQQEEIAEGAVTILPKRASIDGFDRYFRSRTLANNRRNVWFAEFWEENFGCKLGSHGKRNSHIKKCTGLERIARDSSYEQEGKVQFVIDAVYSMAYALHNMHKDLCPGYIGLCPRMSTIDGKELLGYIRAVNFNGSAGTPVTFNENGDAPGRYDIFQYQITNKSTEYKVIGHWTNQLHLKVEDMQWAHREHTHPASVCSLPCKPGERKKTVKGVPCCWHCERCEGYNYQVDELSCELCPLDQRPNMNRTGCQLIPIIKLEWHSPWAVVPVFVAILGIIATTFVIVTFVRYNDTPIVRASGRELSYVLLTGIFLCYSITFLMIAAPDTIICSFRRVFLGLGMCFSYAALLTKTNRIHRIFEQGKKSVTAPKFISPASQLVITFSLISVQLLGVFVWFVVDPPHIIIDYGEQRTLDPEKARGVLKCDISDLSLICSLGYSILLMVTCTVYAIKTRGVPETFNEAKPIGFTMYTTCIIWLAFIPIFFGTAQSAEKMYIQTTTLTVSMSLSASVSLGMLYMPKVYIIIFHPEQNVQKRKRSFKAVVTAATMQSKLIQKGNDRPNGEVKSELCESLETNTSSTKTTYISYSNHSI
For series [4], the target named is Mu-type opioid receptor (Homo sapiens) (UniProt P35372). The experiment in a line: Binding affinity to mu receptor (unknown origin) 10 umol/L by radioligand binding assay. The note with it: dose 10.0 µmol/L.
Mu-type opioid receptor (Homo sapiens), sequence (P35372 whole entry): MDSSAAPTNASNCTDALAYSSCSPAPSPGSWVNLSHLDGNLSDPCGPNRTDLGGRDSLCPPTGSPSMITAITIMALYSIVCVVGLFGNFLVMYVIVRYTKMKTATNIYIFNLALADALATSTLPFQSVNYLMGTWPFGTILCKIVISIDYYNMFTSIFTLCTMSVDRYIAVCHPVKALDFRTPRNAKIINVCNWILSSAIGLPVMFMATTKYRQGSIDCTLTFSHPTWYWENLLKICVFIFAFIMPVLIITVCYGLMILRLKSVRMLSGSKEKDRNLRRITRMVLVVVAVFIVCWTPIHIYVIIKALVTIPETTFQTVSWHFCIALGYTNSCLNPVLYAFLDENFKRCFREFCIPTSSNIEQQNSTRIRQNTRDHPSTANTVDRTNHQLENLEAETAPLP
Series [5] has as its target Alpha-2A adrenergic receptor (Homo sapiens) (UniProt P08913). The experiment in a line: Binding affinity to alpha2A adrenoreceptor (unknown origin) 10 umol/L by radioligand binding assay. The note with it: dose 10.0 µmol/L.
The target in series [6] is T2, Metabotropic glutamate receptor 4 (Homo sapiens, UniProt Q14833). The experiment in a line: Antagonist activity at human mGlu4 receptor expressed in CHO cell membranes in presence of glutamate by GTPgammaS binding assay. The series is classed as functional, Cell membrane.
T2 sequence (Q14833 whole entry): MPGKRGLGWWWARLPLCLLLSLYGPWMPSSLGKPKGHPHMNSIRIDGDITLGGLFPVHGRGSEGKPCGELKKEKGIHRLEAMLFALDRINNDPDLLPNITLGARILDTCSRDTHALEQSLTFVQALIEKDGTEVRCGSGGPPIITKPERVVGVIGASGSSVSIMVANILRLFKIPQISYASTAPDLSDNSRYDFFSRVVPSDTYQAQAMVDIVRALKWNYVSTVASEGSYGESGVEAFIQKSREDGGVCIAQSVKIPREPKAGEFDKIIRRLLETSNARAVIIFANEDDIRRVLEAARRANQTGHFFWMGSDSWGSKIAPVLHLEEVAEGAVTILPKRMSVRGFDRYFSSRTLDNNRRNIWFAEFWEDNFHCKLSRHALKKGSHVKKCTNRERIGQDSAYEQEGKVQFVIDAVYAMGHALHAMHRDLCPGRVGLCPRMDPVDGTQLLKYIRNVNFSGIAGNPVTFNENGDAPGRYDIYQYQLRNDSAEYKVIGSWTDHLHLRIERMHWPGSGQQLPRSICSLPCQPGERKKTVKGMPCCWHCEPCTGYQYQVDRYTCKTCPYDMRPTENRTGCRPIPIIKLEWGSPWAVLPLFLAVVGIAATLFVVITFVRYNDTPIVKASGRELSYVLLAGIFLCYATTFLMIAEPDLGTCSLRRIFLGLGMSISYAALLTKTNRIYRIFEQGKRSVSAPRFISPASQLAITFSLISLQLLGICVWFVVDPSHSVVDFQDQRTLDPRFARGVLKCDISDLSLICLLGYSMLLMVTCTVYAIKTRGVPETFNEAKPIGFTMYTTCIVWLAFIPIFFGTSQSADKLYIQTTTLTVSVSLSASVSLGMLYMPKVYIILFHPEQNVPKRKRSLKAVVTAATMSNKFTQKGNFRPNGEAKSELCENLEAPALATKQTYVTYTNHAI
In series [7] the target is T3, Metabotropic glutamate receptor 6 (Homo sapiens, UniProt O15303). The experiment in a line: Antagonist activity at human mGlu6 receptor expressed in HEK293T cell membranes in presence of glutamate by GTPgammaS binding assay. The series is classed as functional, Cell membrane.
T3 sequence (O15303 whole entry): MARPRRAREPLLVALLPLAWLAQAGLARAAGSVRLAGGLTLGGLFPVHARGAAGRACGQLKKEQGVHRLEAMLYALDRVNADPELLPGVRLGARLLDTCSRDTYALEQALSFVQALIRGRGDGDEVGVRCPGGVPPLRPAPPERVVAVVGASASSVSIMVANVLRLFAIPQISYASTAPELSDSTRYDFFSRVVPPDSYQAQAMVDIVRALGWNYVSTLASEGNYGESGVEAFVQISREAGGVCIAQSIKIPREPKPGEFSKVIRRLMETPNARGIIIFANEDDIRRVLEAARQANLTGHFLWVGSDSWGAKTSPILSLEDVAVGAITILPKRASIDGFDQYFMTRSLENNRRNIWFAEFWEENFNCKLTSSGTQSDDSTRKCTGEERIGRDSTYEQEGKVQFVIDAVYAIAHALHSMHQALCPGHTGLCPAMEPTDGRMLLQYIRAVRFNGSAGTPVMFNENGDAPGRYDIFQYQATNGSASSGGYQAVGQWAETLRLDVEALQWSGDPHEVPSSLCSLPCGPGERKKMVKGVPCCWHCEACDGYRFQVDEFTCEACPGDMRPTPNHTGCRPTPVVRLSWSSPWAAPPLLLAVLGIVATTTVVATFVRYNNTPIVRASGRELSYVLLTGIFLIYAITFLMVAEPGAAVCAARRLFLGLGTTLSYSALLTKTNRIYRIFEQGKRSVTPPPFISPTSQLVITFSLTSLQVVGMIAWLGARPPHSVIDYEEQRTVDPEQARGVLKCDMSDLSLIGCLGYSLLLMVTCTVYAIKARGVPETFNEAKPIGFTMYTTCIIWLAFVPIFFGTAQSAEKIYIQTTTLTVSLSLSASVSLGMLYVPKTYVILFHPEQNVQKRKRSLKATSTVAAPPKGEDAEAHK
Series [8] concerns the target Metabotropic glutamate receptor 3 (Rattus norvegicus, UniProt P31422). The experiment in a line: Agonist activity at rat mGlu3 receptor expressed in CHO cell membranes by GTPgammaS binding assay. In kind it is functional, Cell membrane.
Series [9] addresses Beta-2 adrenergic receptor (Homo sapiens) (UniProt P07550). The experiment in a line: Binding affinity to beta2 adrenoreceptor (unknown origin) 10 umol/L by radioligand binding assay. Conditions: dose 10.0 µmol/L.
In series [10] the target is T3, Metabotropic glutamate receptor 6. The experiment in a line: Agonist activity at human mGlu6 receptor expressed in HEK293T cell membranes by GTPgammaS binding assay. In kind it is functional, Cell membrane.
The target of series [11] is T4, Metabotropic glutamate receptor 1 (Homo sapiens, UniProt Q13255). The experiment in a line: Agonist activity at human mGlu1 receptor expressed in CHO cell membranes by intracellular Ca2+ assay. In kind it is functional, Cell membrane.
T4 sequence (Q13255 whole entry): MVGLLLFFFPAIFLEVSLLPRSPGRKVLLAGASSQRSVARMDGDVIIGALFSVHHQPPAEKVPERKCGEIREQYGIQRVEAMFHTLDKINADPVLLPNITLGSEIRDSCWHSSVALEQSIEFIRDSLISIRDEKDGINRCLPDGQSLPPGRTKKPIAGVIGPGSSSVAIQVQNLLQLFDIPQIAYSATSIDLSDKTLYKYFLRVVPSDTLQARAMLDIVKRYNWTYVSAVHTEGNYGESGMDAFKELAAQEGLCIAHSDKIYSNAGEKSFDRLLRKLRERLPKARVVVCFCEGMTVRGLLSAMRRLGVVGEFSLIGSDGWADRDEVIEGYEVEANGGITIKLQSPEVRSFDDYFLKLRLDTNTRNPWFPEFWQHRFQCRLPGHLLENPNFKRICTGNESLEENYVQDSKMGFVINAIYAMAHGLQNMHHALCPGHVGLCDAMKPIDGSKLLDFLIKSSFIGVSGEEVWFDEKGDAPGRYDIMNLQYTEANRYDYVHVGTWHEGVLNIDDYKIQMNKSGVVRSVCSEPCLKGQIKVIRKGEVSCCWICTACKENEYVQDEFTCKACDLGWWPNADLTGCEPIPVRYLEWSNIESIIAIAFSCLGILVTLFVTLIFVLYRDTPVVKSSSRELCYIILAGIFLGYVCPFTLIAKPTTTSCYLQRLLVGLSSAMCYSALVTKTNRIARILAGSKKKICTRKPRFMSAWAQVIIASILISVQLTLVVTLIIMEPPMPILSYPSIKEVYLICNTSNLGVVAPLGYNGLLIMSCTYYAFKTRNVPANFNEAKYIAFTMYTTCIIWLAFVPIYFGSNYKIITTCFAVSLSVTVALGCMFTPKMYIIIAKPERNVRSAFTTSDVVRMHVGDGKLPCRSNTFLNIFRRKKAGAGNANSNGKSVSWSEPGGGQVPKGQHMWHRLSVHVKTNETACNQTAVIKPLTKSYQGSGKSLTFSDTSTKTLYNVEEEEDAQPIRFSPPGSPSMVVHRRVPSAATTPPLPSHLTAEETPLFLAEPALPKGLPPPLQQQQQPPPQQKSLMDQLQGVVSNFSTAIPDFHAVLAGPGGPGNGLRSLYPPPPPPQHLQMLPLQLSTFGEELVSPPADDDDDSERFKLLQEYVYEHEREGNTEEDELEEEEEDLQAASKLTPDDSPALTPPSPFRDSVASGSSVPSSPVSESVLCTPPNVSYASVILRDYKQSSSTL
The target in series [12] is T2, Metabotropic glutamate receptor 4. The experiment in a line: Agonist activity at human mGlu4 receptor expressed in CHO cell membranes by GTPgammaS binding assay. In kind it is functional, Cell membrane.
Series [13] concerns the target Metabotropic glutamate receptor 3 (Homo sapiens, UniProt Q14832). The experiment in a line: Antagonist activity at human mGlu3 receptor expressed in CHO cell membranes in presence of glutamate by GTPgammaS binding assay. In kind it is functional, Cell membrane.
Series [14] concerns the target T4, Metabotropic glutamate receptor 1. The experiment in a line: Antagonist activity at human mGlu1 receptor expressed in CHO cell membranes in presence of glutamate by intracellular Ca2+ assay. In kind it is functional, Cell membrane.
The target of series [15] is D(2) dopamine receptor (Homo sapiens) (UniProt P14416). The experiment in a line: Binding affinity to D2S receptor (unknown origin) 10 umol/L by radioligand binding assay. Conditions: dose 10.0 µmol/L.
D(2) dopamine receptor (Homo sapiens), sequence (P14416 whole entry): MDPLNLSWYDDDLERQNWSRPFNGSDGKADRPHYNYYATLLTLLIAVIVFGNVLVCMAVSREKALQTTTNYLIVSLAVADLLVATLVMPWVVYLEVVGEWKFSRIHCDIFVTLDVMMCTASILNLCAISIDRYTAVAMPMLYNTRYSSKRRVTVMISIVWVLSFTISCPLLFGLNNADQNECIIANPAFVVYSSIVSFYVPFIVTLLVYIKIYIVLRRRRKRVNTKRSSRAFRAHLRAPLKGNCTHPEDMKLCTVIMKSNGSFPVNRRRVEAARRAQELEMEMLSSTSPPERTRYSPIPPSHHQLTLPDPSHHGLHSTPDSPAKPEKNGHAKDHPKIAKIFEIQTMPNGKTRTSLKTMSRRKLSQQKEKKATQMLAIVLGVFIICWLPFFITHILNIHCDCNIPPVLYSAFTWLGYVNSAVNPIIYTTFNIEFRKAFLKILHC
Series [16] concerns the target Neuromedin-K receptor (Homo sapiens) (UniProt P29371). The experiment in a line: Binding affinity to NK3 receptor (unknown origin) 10 umol/L by radioligand binding assay. Conditions: dose 10.0 µmol/L.
The species entered for a further series is Homo sapiens. The experiment in a line: Binding affinity to adenosine transporter (unknown origin) at 10 umol/L by radioligand binding assay. Conditions: dose 10.0 µmol/L.
Series [17] addresses T1, Metabotropic glutamate receptor 8. The experiment in a line: Antagonist activity at human mGlu8 receptor expressed in CHO cell membranes in presence of glutamate by GTPgammaS binding assay. In kind it is functional, Cell membrane.
The target in series [18] is Metabotropic glutamate receptor 2 (Homo sapiens, UniProt Q14416). The experiment in a line: Agonist activity at human mGlu2 receptor expressed in CHO cell membranes by GTPgammaS binding assay. In kind it is functional, Cell membrane.

The term bioavailability denotes the share of a dose that reaches the circulation, judged against a reference dose that is usually intravenous. The Emax is the size of the effect at its maximum, as opposed to the concentration needed. By EC50 is commonly meant the midpoint of the concentration-response curve. The term IC50 denotes the midpoint of a concentration-inhibition curve.

Active and inactive are the calls of the source. The calls are words filed in the database; no cut-off is given here.

The compound `N[C@]1(C(=O)O)[C@H]2[C@@H](C[C@@H]1F)[C@@H]2C(=O)O` returned a bioavailability in [1] of 4%. This compound also displayed an Emax in series [2] of 99.7%. Further, the EC50 in [3] is greater than 30 µM; in series [8], 0.0969 µM; in series [10], greater than 30 µM; in [11], greater than 30 µM; in series [12], greater than 30 µM. The outcome (in series [4]; in series [5]; in [9]; in series [15]; in series [16]; in the series listed under Homo sapiens) was inactive. The concentration for half-maximal inhibition (IC50) in series [6], in series [7], in series [13], in series [14] and in [17] was greater than 30 µM in each case.
For the compound `CC(C)[C@@H]1CC[C@@H](C)C[C@H]1OC(=O)O[C@@H](C)OC(=O)[C@H]1[C@@H]2C[C@H](F)[C@@](N)(C(=O)O)[C@@H]21`, the outcome (in series [4]; in series [5]; in series [9]; in [15]; in [16]; in the series filed under Homo sapiens) was inactive. Also, in series [18], the EC50 was greater than 30 µM.
